Values quoted from earlier work in patent publication US20250268885A1, “ORAL COMPOSITION COMPRISING NICOTINAMIDE” (CONARIS Research Institute AG, priority 2022, published 2025).

Settings: sources collected in PubChem

solubility relative to diclofenac sodium: several orders of magnitude higher
Compound: NC(=O)c1cccnc1 [Nicotinamide, nicotinamide]
